Assay results reported in patent publication US12414978B2, “Tyrosine inhibitors with immunosuppressive activity in human neonatal keratinocyte progenitors” (ESCAPE THERAPEUTICS, INC., priority 2019, dated 2025).
Square brackets hold non-standard residues; d marks the D form. Ends that are not written are not given here. Peptide text beside a SMILES is read from it. * marks the point of attachment. Palmitoyl = CCCCCCCCCCCCCCCC(=O)*

Legend:
[1] = system: human epidermal progenitors; test: MTT cell proliferation, epidermal progenitors; format: cell-based
Procedure: Proliferation rates were determined using a TACS® MTT Cell Proliferation Kit (R&D systems, Minneapolis, MN). Cells were seeded at 2.5×10^4 per well in 96-well plates in a humidified atmosphere with 5 percent CO2 at 37 degrees Celsius. Twenty-four hours later, decapeptide-12 or oxyresveratrol were added to the corresponding wells at varying concentrations (0, 3, 10, 30, 100, 300, and 1000 micromolar), and cultures were then incubated for 72 hours. The remainder of the procedure was performed following the manufacturer's protocol.
(§1) Proliferation rates for three human cell lines (epidermal progenitors, melanoblasts, and fibroblasts) were determined using a TACS® MTT Cell Proliferation Kit. Cells were seeded at 2.5×10^4 per well in 96-well plates in a humidified atmosphere with 5 percent CO2 at 37 degrees Celsius. Twenty-four hours later, the decapeptides were added to the corresponding wells at varying concentrations and incubated for 72 hours. The remainder of the procedure was performed following the manufacturer's protocol.

melanoblasts [2] = test: MTT cell proliferation, melanoblasts; format: cell-based, human
Procedure: as §1

fibroblasts [3] = test: MTT cell proliferation, fibroblasts; format: cell-based, human
Procedure: as §1

epidermal progenitors = test: Trypan blue cell viability after 7 days, epidermal progenitors; format: cell-based, human; conditions: relative to control (untreated cells)
Procedure: (§2) The effect of each of the decapeptides upon cell viability was also tested. In particular, cells were incubated with the decapeptide at various concentrations and then counted for viability relative to the control (untreated cells) using trypan blue. Cytotoxicity was measured according to the following formula: [1−(# of cells in control−# of live cells in test sample)/# of cells in control]×100 percent.

melanoblasts [4] = test: Trypan blue cell viability after 7 days, melanoblasts; format: cell-based, human; conditions: relative to control (untreated cells)
Procedure: as §2

fibroblasts [5] = test: Trypan blue cell viability after 7 days, fibroblasts; format: cell-based, human; conditions: 50 μM, relative to control (untreated cells)
Procedure: as §2

PHA-stimulated PBMC [6] = test: PHA-stimulated PBMC proliferation; format: cell-based, human; conditions: PHA 72 hours
Procedure: (§3) Cryopreserved human PBMCs were purchased from Astarte Biologics (Redmond, Washington, USA), activated with phytohemagglutinin (PHA), and proliferation assessed. Interleukin (IL)-2 activated human NK cell cytotoxic killing of human K562 cells was assessed using a CytoTox96 non-radioactive cytotoxicity assay kit (Promega). Protease inhibitor was added to the media to prevent degradation of decapeptide-12.
(§4) Three independent trials were performed for each experiment. Microsoft Excel (Seattle, Washington) was used to calculate means and standard errors and statistical significance was determined using unpaired analysis of variance or two-tailed student T-test. P values <0.05 were taken to be statistically significant.
The effects of decapeptide-12 and oxyresveratrol on PBMC proliferation rates after exposure to PHA for 72 hours, were explored.

[7] = system: IL-2 activated human NK cell cytotoxic killing of human K562 cells; test: NK cytotoxic killing of K562 cells (CytoTox96); format: cell-based
Procedure: as §3, §4
The impact of decapeptide-12 on IL-2 primed NK-mediated cytotoxic killing of K562 cells, was also assessed.

PHA-stimulated PBMC [8] = conditions: 0.1 millimolar; cited from earlier work

Compound	epidermal progenitor proliferation rate after 72 hours ([1]; 3 μM) [%]	epidermal progenitor proliferation rate after 72 hours ([1]; 10 μM) [%]	epidermal progenitor proliferation rate after 72 hours ([1]; 30 μM) [%]	epidermal progenitor proliferation rate after 72 hours ([1]; 50 μM) [%]	epidermal progenitor proliferation rate after 72 hours ([1]; 100 μM) [%]	epidermal progenitor proliferation rate after 72 hours ([1]; 300 μM) [%]	epidermal progenitor proliferation rate after 72 hours ([1]; 500 μM) [%]	epidermal progenitor proliferation rate after 72 hours ([1]; 1000 μM) [%]	melanoblast proliferation rate after 72 hours (melanoblasts [2]; 3 μM) [%]	melanoblast proliferation rate after 72 hours (melanoblasts [2]; 10 μM) [%]	melanoblast proliferation rate after 72 hours (melanoblasts [2]; 30 μM) [%]	melanoblast proliferation rate after 72 hours (melanoblasts [2]; 50 μM) [%]	melanoblast proliferation rate after 72 hours (melanoblasts [2]; 100 μM) [%]	melanoblast proliferation rate after 72 hours (melanoblasts [2]; 300 μM) [%]	melanoblast proliferation rate after 72 hours (melanoblasts [2]; 500 μM) [%]	melanoblast proliferation rate after 72 hours (melanoblasts [2]; 1000 μM) [%]	fibroblast proliferation rate after 72 hours (fibroblasts [3]; 3 μM) [%]	fibroblast proliferation rate after 72 hours (fibroblasts [3]; 10 μM) [%]	fibroblast proliferation rate after 72 hours (fibroblasts [3]; 30 μM) [%]	epidermal progenitor viability after 7 days (epidermal progenitors; 10 μM) [%]	also measured
CCCCCCCCCCCCCCCC(=O)N[C@@H](Cc1ccc(O)cc1)C(=O)N[C@@H](CCCNC(=N)N)C(=O)N[C@@H](CO)C(=O)N[C@@H](CCCNC(=N)N)C(=O)N[C@@H](CCCCN)C(=O)N[C@@H](Cc1ccc(O)cc1)C(=O)N[C@@H](CO)C(=O)N[C@@H](CO)C(=O)N[C@@H](Cc1c[nH]c2ccccc12)C(=O)N[C@@H](Cc1ccc(O)cc1)C(N)=O [P4A, Palmitoyl-YRSRKYSSWY-amide] (Palmitoyl-YRSRKYSSWY-NH2)	99 ± 1	99 ± 1	98 ± 1	97 ± 1	97 ± 2	96 ± 2	96 ± 2	94 ± 2	100	100	99 ± 1	98 ± 1	97 ± 2	97 ± 2	96 ± 2	95 ± 2	100	99 ± 1	98 ± 1	99 ± 1	fibroblast proliferation rate after 72 hours (fibroblasts [3]; 50 μM): 98 ± 1%; fibroblast proliferation rate after 72 hours (fibroblasts [3]; 100 μM): 97 ± 2%; fibroblast proliferation rate after 72 hours (fibroblasts [3]; 300 μM): 97 ± 2%; fibroblast proliferation rate after 72 hours (fibroblasts [3]; 500 μM): 96 ± 2%; fibroblast proliferation rate after 72 hours (fibroblasts [3]; 1000 μM): 95 ± 2%; melanoblast viability after 7 days (melanoblasts [4]; 10 μM): 99 ± 1%; melanoblast viability after 7 days (melanoblasts [4]; 50 μM): 98 ± 1%; melanoblast viability after 7 days (melanoblasts [4]; 100 μM): 97 ± 2%; fibroblast viability after 7 days (fibroblasts [5]): 98 ± 1%
CCCCCCCCCCCCCCCC(=O)N[C@@H](Cc1ccc(O)cc1)C(=O)N[C@@H](CCCNC(=N)N)C(=O)N[C@@H](CO)C(=O)N[C@@H](CCCNC(=N)N)C(=O)N[C@@H](CCCCN)C(=O)N[C@H](Cc1ccc(O)cc1)C(=O)N[C@@H](CO)C(=O)N[C@@H](CO)C(=O)N[C@@H](Cc1c[nH]c2ccccc12)C(=O)N[C@@H](Cc1ccc(O)cc1)C(N)=O [P4B, Palmitoyl-YRSRK[*Y]SSWY-amide] (Palmitoyl-YRSRK[dY]SSWY-NH2)	99 ± 1	99 ± 1	98 ± 1	98 ± 1	97 ± 1	97 ± 1	95 ± 2	94 ± 2	100	100	99 ± 1	98 ± 1	97 ± 2	96 ± 2	95 ± 2	94 ± 2	100	99 ± 1	99 ± 1	99 ± 1	fibroblast proliferation rate after 72 hours (fibroblasts [3]; 50 μM): 99 ± 1%; fibroblast proliferation rate after 72 hours (fibroblasts [3]; 100 μM): 98 ± 2%; fibroblast proliferation rate after 72 hours (fibroblasts [3]; 300 μM): 97 ± 2%; fibroblast proliferation rate after 72 hours (fibroblasts [3]; 500 μM): 96 ± 2%; fibroblast proliferation rate after 72 hours (fibroblasts [3]; 1000 μM): 96 ± 2%; epidermal progenitor viability after 7 days (epidermal progenitors; 50 μM): 98 ± 1%; epidermal progenitor viability after 7 days (epidermal progenitors; 100 μM): 97 ± 1%
Oc1cc(O)cc(/C=C/c2ccc(O)cc2O)c1 [oxyresveratrol]	–	–	–	–	–	–	–	–	–	–	–	–	–	–	–	–	–	–	–	–	reduction in proliferation ([1]; 1 millimolar (1000 micromolar), 72 hours, epidermal progenitors): 12±2%; reduction of PHA-stimulated PBMC proliferation (PHA-stimulated PBMC [6]; 0.1 millimolar): 35.3±1.8%; reduction of PHA-stimulated PBMC proliferation (PHA-stimulated PBMC [6]; 0.3 millimolar): progressively less inhibition; reduction of PHA-stimulated PBMC proliferation (PHA-stimulated PBMC [6]; 1 millimolar): progressively less inhibition; reduction of PHA-stimulated PBMC proliferation (PHA-stimulated PBMC [6]; 3 millimolar): 14.7±3.4%; reduction of NK killing of K562 cells ([7]; 0.1 millimolar, E:T ratio 10:1): 88.7±1.8%; reduction of NK killing of K562 cells ([7]; 0.1 millimolar, E:T ratio 30:1): 72.8±1.9%; reduction of NK killing of K562 cells ([7]; 0.3 millimolar, E:T ratio 10:1): 86.1±0.9%; reduction of NK killing of K562 cells ([7]; 0.3 millimolar, E:T ratio 30:1): 64.0±3.4%
Oc1ccc(C=Cc2cc(O)cc(O)c2)cc1 [resveratrol]	–	–	–	–	–	–	–	–	–	–	–	–	–	–	–	–	–	–	–	–	inhibition of PHA-induced proliferation (PHA-stimulated PBMC [8]): inhibits
Ac-YRSRKYSSWY-NH2 [P4C, Acetyl-YRSRKYSSWY-amide]	99 ± 1	99 ± 1	98 ± 1	98 ± 1	97 ± 1	97 ± 1	96 ± 2	96 ± 2	100	100	99 ± 1	98 ± 1	97 ± 2	96 ± 3	95 ± 2	95 ± 2	100	99 ± 1	99 ± 1	99 ± 1	fibroblast proliferation rate after 72 hours (fibroblasts [3]; 50 μM): 99 ± 1%; fibroblast proliferation rate after 72 hours (fibroblasts [3]; 100 μM): 98 ± 2%; fibroblast proliferation rate after 72 hours (fibroblasts [3]; 300 μM): 97 ± 2%; fibroblast proliferation rate after 72 hours (fibroblasts [3]; 500 μM): 96 ± 2%; fibroblast proliferation rate after 72 hours (fibroblasts [3]; 1000 μM): 96 ± 2%; epidermal progenitor viability after 7 days (epidermal progenitors; 30 μM): 98 ± 1%; epidermal progenitor viability after 7 days (epidermal progenitors; 1000 μM): 94 ± 3%; melanoblast viability after 7 days (melanoblasts [4]; 10 μM): 99 ± 1%; melanoblast viability after 7 days (melanoblasts [4]; 100 μM): 97 ± 2%; melanoblast viability after 7 days (melanoblasts [4]; 300 μM): 96 ± 3%
YRSRKYSSWY [P4, YRSRKYSSWY]	–	–	–	–	–	–	–	–	–	–	–	–	–	–	–	–	–	–	–	99 ± 1	melanoblast viability after 7 days (melanoblasts [4]; 10 μM): 99 ± 1%; melanoblast viability after 7 days (melanoblasts [4]; 50 μM): 98 ± 1%; melanoblast viability after 7 days (melanoblasts [4]; 1000 μM): 94 ± 2%
